Here are results for 22 compounds from ChEMBL document CHEMBL1155109, “Discovery of 4-amino and 4-hydroxy-1-aroylindoles as potent tubulin polymerization inhibitors” (J Med Chem, 2008).

The structures appear in SMILES notation. A value given as a limit tells only on which side of the number the result lay.

The term IC50 denotes the midpoint of a concentration-inhibition curve. A lower IC50 goes with inhibition by little substance. The inhibition is the change of the read-out against control, counted positive when it falls. A low value points to a weak effect.

One test relates to KB. The experiment in a line: Growth inhibition of human KB cells after 72 hrs by methylene blue dye assay. In kind it is functional, cell-based.
The next test relates to NCI-H460. The experiment in a line: Growth inhibition of human H460 cells after 72 hrs by methylene blue dye assay. The test is classed as functional, cell-based. The settings on record: NCI-H460, 72 h.
Another test has as its system MKN-45. Kind of test: Growth inhibition of human MKN45 cells after 72 hrs by methylene blue dye assay. The test is classed as functional, cell-based. The settings on record: MKN-45, 72 h.
Test [1] can be described thus: Growth inhibition of P-gp 170/MDR overexpressing human KB-vin10 cells after 72 hrs by methylene blue dye assay. The settings on record: KB-VIN10, 72 h. In kind it is functional.
A short description of test [2]: Inhibition of microtubule associated protein rich tubulin polymerization.
Test [3] can be described thus: Displacement of [3H]colchicine from microtubule associated protein rich tubulin at 1 uM. In general terms: Loss of bound radioactivity is the signal in a displacement assay; it reports binding, not function.
Test [4] can be described thus: Displacement of [3H]colchicine from microtubule associated protein rich tubulin at 5 uM.

Turning to `COc1ccc2c(c1)CCCN2C(=O)c1cc(OC)c(OC)c(OC)c1`, the concentration for half-maximal inhibition (IC50) is 596 nM in the test with KB; 652 nM with NCI-H460; 395 nM with MKN-45; 586 nM in test [1]; > 5000 nM in test [2].
As for `COc1cc(C(=O)n2c(C)cc3cc(N)ccc32)cc(OC)c1OC`, the half-inhibitory concentration (IC50) in the test on KB came to 345 nM; in the test on NCI-H460, 334 nM; in the test with MKN-45 it was 156 nM; in test [1], 312 nM.
Consider `COc1cc(C(=O)n2ccc3c(N)c(OC)ccc32)cc(OC)c1OC`, for which the IC50 in the test on KB was 1.2 nM; with NCI-H460 it was 5.4 nM; in the test on MKN-45, 3.1 nM; in test [1] it was 2.4 nM; in test [2], 900 nM. Besides, the figures for the inhibition in test [3] and in test [4] were 71% and 93%, respectively.
For `COc1ccc2c(c1)cc(C(C#N)N(C)C)n2C(=O)c1cc(OC)c(OC)c(OC)c1` (configuration not stated), the IC50 (with KB; with NCI-H460; in the test with MKN-45; in test [1]) was > 5000 nM throughout.
Turning to `COc1cc2c(c(OC)c1OC)-c1ccc(OC)c(=O)cc1[C@@H](NC(C)=O)CC2` [COLCHICINE], the IC50 in the test on KB was determined as 11.4 nM; with MKN-45, 11 nM; in test [1], 125 nM; in test [2], 3000 nM.
In the case of `COC(=O)c1ccc2c(ccn2C(=O)c2cc(OC)c(OC)c(OC)c2)c1`, the IC50 in the test on KB was > 5000 nM; with NCI-H460, > 5000 nM; in the test on MKN-45, > 5000 nM; in test [1] it was 5000 nM.
As to `COc1cc(C(=O)n2ccc3cc(C=O)ccc32)cc(OC)c1OC`, the IC50 (in the test on KB; in the test on NCI-H460; with MKN-45; in test [1]) was > 5000 nM throughout.
As to `COc1cc(C(=O)n2c(C)cc3cc(N(C)C)ccc32)cc(OC)c1OC`, the IC50 with KB was found to be 42 nM; with NCI-H460 it was 52 nM; with MKN-45, 41 nM; in test [1] it was 38 nM; in test [2], 1500 nM. Further, the inhibition in test [3] was 72%; in test [4] it was 89%.
In the case of `COc1cc(C(=O)n2ccc3cc(CN(C)C)ccc32)cc(OC)c1OC`, the IC50 (in the test on KB; with NCI-H460; in the test with MKN-45; in test [1]) was > 5000 nM throughout.
In the case of `CCOC(=O)c1cc2cc(OC)ccc2n1C(=O)c1cc(OC)c(OC)c(OC)c1`, the IC50 is 230 nM with KB, 198 nM in the test on NCI-H460, 101 nM in the test on MKN-45 and 185 nM in test [1].
The matching figures for `COc1ccc(NC(=O)c2cc(OC)c(OC)c(OC)c2)cc1`: > 5000 nM, > 5000 nM, > 5000 nM and > 5000 nM.
For the compound `COc1ccc2c(c1)cc(CO)n2C(=O)c1cc(OC)c(OC)c(OC)c1`, the concentration for half-maximal inhibition (IC50) (with KB; in the test on NCI-H460; in the test with MKN-45; in test [1]) was > 5000 nM in each case.
As for `COc1cc(C(=O)n2ccc3cc(C)ccc32)cc(OC)c1OC`, the IC50 in the test with KB came out at 371 nM; in the test with NCI-H460, 353 nM; with MKN-45, 314 nM; in test [1] it was 400 nM.
The matching figures for `COc1cc(C(=O)n2ccc3c([N+](=O)[O-])c(OC)ccc32)cc(OC)c1OC`: > 5000 nM, > 5000 nM, > 5000 nM and > 5000 nM.
Turning to `COc1cc(C(=O)n2c(C)cc3c(O)c(OC)ccc32)cc(OC)c1OC`, the IC50 came out at 0.3 nM with KB; 0.5 nM in the test on NCI-H460; 0.6 nM in the test with MKN-45; 0.3 nM in test [1]; 600 nM in test [2]. For the same compound, the figures for the inhibition in test [3] and in test [4] were 94% and 97%, respectively.
As for `COc1ccc(/C=C\c2cc(OC)c(OC)c(OC)c2)cc1O` [COMBRETASTATIN A4], the IC50 with KB worked out at 2.2 nM; in the test on NCI-H460, 2.8 nM; in the test with MKN-45 it was 5.6 nM. Further, the inhibition in test [3] amounted to 85%; in test [4] it was 93%.
As for `COc1ccc2c(c1)CCN2C(=O)c1cc(OC)c(OC)c(OC)c1`, the IC50 came to 89 nM with KB; 98 nM with NCI-H460; 53 nM in the test with MKN-45; 84 nM in test [1]; 2600 nM in test [2]. Besides, the inhibition worked out at 27% in test [3] and 55% in test [4].
As to `COc1ccc2c(c1)CC(C)N2C(=O)c1cc(OC)c(OC)c(OC)c1` (configuration not stated), the IC50 is 370 nM with KB, 413 nM with NCI-H460, 257 nM in the test on MKN-45 and 372 nM in test [1].
Take `COc1cc(C(=O)n2ccc3cc(CO)ccc32)cc(OC)c1OC`: the IC50 (in the test with KB; with NCI-H460; with MKN-45; in test [1]) was > 5000 nM in each case.
With `CCOC(=O)c1c(C)n(C(=O)c2cc(OC)c(OC)c(OC)c2)c2ccc(OC)cc12`, the IC50 (in the test on KB; in the test with NCI-H460; with MKN-45; in test [1]) was > 5000 nM each time.
Turning to `COc1cc(C(=O)n2ccc3cc4c(cc32)OCO4)cc(OC)c1OC`, the IC50 in the test with KB turned out to be 575 nM; with NCI-H460 it was 559 nM; in the test with MKN-45, 521 nM; in test [1], 587 nM.
The matching figures for `COc1ccc2c(c1)c(CN(C)C)cn2C(=O)c1cc(OC)c(OC)c(OC)c1`: > 5000 nM, > 5000 nM, > 5000 nM and > 5000 nM.
